In one test the target is menin protein (Homo sapiens (Human), UniProt O00255). In words: biochemical. In kind it is binding. The conditions noted are these: FP competitive binding; menin protein 4 nM, FAM-MM2 probe 2 nM; read-out: Menin Binding Affinity IC50. In a few lines:
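Competitive fluorescence polarization assay using FAM-labelled MLL1 peptide probe FAM-MM2 (2 nM final) preincubated with menin (4 nM final) in PBS with 0.02% bovine γ-globulin, 4% DMSO and 0.01% Triton X-100. Compounds were added and incubated 30 min at room temperature. IC50 came from nonlinear regression of competition curves, with Ki also derived.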

In the next test the test system is MOLM-13 cells. In words: Mechanism of action studies, gene expression measured with qPCR in MOLM-13 cells. The format is cell-based. Particulars: 66 hours of treatment. The protocol:
(§1) MOLM-13 or MV4-11 cells were seeded in a 6-well plate at a density of 500,000 cells/well in 2 ml of culture medium and treated with either Cpd. No. 210 or Cpd. No. 366 at the concentrations as indicated. About 4 days after the treatments, cells were harvested and the expression of each gene was measured with qPCR.
MOLM-13 cells were seeded in a 6-well plate at a density of 500,000 cells/well in 2 ml of culture medium and treated with either Cpd. No. 366 or Cpd. No. 238 at the concentrations as indicated. About 66 hours after the treatment, cells were harvested and the expression of each gene was measured with qPCR.
(§2) MOLM-13 or MV4-11 cells were seeded in a 6-well plate at a density of 500,000-800,000 cells/well in 2 ml of culture medium and treated with either Cpd. No. 366 or Cpd. No. 215 at the concentrations as indicated. About 40 hours after the treatment, cells were harvested and the expression of each gene was measured with qPCR.

Test [1] can be described thus: Cell growth inhibition, CellTiter-Glo Luminescent Cell Viability Assay. The format is cell-based. In a few lines:
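Cells seeded at 2,000/well with serially diluted compound and cultured 4 days at 37 °C, 5% CO2. Viability read by CellTiter-Glo luminescence; IC50 derived from dose-response.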

The test system of another test is MV4-11 cells. Put plainly: Mechanism of action studies, gene expression measured with qPCR in MV4-11 cells. In kind it is cell-based. The conditions noted are these: 40 hours of treatment. The procedure:
as §1, §2

Setting [2] is: MOLM-13, 96 h, MOLM13 cells, 4 days, CellTiter-Glo, read-out: Cell Growth Inhibition IC50 (μM) MOLM13.
Where [3] appears, read: MV4-11, 96 h, MV4, 11 cells, 4 days, CellTiter-Glo, read-out: Cell Growth Inhibition IC50 (μM) MV4, 11.
Where [4] appears, read: MOLM-13, 96 h, read-out: Cell Growth Inhibition IC50 (μM) MOLM13, MOLM13 cells, 4 days, CellTiter-Glo.
[5] abbreviates: MV4-11, 96 h, read-out: Cell Growth Inhibition IC50 (μM) MV4, 11, MV4, 11 cells, 4 days, CellTiter-Glo.

Where two headings read alike, the source gives them in different places.

Sequence of menin protein (O00255 whole entry): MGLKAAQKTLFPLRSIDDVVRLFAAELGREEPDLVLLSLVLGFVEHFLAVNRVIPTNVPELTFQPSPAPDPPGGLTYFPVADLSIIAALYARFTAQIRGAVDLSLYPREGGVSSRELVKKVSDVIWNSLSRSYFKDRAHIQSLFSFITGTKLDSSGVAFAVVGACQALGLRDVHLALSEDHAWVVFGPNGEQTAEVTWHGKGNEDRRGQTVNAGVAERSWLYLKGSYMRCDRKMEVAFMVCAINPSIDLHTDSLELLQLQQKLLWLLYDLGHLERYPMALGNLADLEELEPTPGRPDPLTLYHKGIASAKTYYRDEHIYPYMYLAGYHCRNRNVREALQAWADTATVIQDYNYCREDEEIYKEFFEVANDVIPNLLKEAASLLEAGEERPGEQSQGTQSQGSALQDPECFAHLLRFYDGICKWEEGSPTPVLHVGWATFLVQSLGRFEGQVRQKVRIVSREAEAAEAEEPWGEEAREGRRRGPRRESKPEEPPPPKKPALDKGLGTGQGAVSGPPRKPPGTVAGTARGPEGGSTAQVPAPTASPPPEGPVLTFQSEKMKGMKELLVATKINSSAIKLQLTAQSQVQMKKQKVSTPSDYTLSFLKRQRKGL

Turning to `CNC(=O)O[C@H]1CCC[C@@H]1C(Cn1ccnc1)(c1ccccc1)C1CCN(CC2CN(c3ccc(S(=O)(=O)c4cnn(C)c4)cc3)C2)CC1` (mixture of isomers) [compound 238, rac-(1S,2R)-2-(2-(1H-imidazol-1-yl)-1-(1-((1-(4-((1-methyl-1H-pyrazol-4-yl)sulfonyl)phenyl)azetidin-3-yl)methyl)piperidin-4-yl)-1-phenylethyl)cyclopentyl methylcarbamate], the half-inhibitory concentration (IC50) at menin protein came to 0.008 µM. In addition, in the test with MOLM-13 cells, the ITGAM gene expression result was “not effect” and the MEIS1 gene expression result was “reduced”. In the test with MOLM-13 cells (dose dependent), the HOX7 gene expression result is “reduced” and the HOX10 gene expression entry was “reduced”. Moreover, the IC50 in test [1] (MOLM-13, 96 h, read-out: Cell Growth Inhibition IC50 (μM) MOLM13) amounted to 0.16 µM. Also, the IC50 in test [1] (MV4-11, 96 h, read-out: Cell Growth Inhibition IC50 (μM) MV4, 11) worked out at 0.027 µM.
Turning to `O=S(=O)(c1ccc(N2CC(CN3CCC(C4(C5CCCC5)NCCc5ccccc54)CC3)C2)cc1)C1CCC1` (centres unmarked) [compound 85, 1-(1-((1-(4-(cyclobutylsulfonyl)phenyl)azetidin-3-yl)methyl)piperidin-4-yl)-1-cyclopentyl-1,2,3,4-tetrahydroisoquinoline], the IC50 on menin protein came out at 0.036 µM; in test [1] (setting [2]), 4.2 µM; in test [1] (setting [3]), 1.6 µM.
In the case of `CNC(=O)O[C@H]1CCC[C@@H]1C(C#N)(c1ccccc1)C1CCN(CC2CN(c3ccc(S(=O)(=O)c4cnn(C)c4)cc3)C2)CC1` (mixture of isomers) [compound 240, rac-(1S,2R)-2-(cyano(1-((1-(4-((1-methyl-1H-pyrazol-4-yl)sulfonyl)phenyl)azetidin-3-yl)methyl)piperidin-4-yl)(phenyl)methyl) cyclopentyl methylcarbamate], the IC50 on menin protein is 0.009 µM; in test [1] (setting [4]) it was 0.54 µM; in test [1] (setting [5]), 0.2 µM.
For the compound `CNC(=O)O[C@H]1CCC[C@@H]1C(C#N)(c1ccccc1)C1CCN(CC2CN(c3ccc(S(=O)(=O)c4ccncc4)cc3)C2)CC1` (mixture of isomers) [Cpd. No. 215, rac-(1S,2R)-2-(cyano(phenyl)(1-((1-(4-(pyridin-4-ylsulfonyl)phenyl)azetidin-3-yl)methyl)piperidin-4-yl)methyl)cyclopentyl methylcarbamate], the IC50 on menin protein was found to be 0.006 µM; in test [1] (setting [4]), 0.415 ± 0.208 µM; in test [1] (setting [5]) it was 0.173 ± 0.048 µM. For the same compound, in the test with MV4-11 cells, the HOX7 gene expression result is given as “Neither Cpd. No. 366 nor Cpd. No. 215 showed an effect”.
For the compound `CC(=O)O[C@H]1CCC[C@@H]1C(C#N)(c1ccccc1)C1CCN(CC2CN(c3ccc(S(=O)(=O)C4CC4)cc3)C2)CC1` (mixture of isomers) [compound 187, rac-(1S,2R)-2-(cyano(1-((1-(4-(cyclopropylsulfonyl)phenyl)azetidin-3-yl)methyl)piperidin-4-yl)(phenyl)methyl)cyclopentyl acetate], the IC50 at menin protein came out at 0.018 µM; in test [1] (setting [4]), 1.9 ± 0.7 µM; in test [1] (setting [5]), 1.2 ± 0.3 µM.
For `CC(=O)O[C@H]1CCC[C@@H]1C1(C2CCN(CC3CN(c4ccc(S(=O)(=O)C5CC5)cc4)C3)CC2)CN(C)Cc2ccc(F)cc21` (mixture of isomers) [compound 316, rac-(1S,2R)-2-(4-(1-((1-(4-(cyclopropylsulfonyl)phenyl)azetidin-3-yl)methyl)piperidin-4-yl)-6-fluoro-2-methyl-1,2,3,4-tetrahydroisoquinolin-4-yl)cyclopentyl acetate] the same measures were 0.003 µM, 1.8 µM and 0.3 µM.
As to `CNC(=O)O[C@H]1CCC[C@@H]1C(C#N)(c1ccccc1)C1CCN(C2CCN(c3ccc(S(=O)(=O)c4ccccc4)cc3)CC2)CC1` (mixture of isomers) [compound 234, rac-(1S,2R)-2-(cyano(phenyl)(1′-(4-(phenylsulfonyl)phenyl)-[1,4′-bipiperidin]-4-yl)methyl)cyclopentyl methylcarbamate], the figures for the IC50 (at menin protein; in test [1] (setting [4]); in test [1] (setting [5])) were 0.05 µM, 6.41 µM and 1.11 µM, respectively.
For the compound `CNC(=O)N[C@@H]1CCC[C@H]1C1(C2CCN(CC3CN(c4ccc(S(=O)(=O)c5ccncc5)cc4)C3)CC2)CN(C)Cc2ccccc21` (mixture of isomers) [compound 278, rac-1-methyl-3-((1R,2S)-2-(2-methyl-4-(1-((1-(4-(pyridin-4-ylsulfonyl)phenyl)azetidin-3-yl)methyl)piperidin-4-yl)-1,2,3,4-tetrahydroisoquinolin-4-yl)cyclopentyl)urea], the figures for the IC50 (at menin protein; in test [1] (setting [4]); in test [1] (setting [5])) were 0.296 µM, 2.12 µM and 2.27 µM, respectively.
Regarding `CC(=O)O[C@H]1CCC[C@@H]1C1(C2CCN(CCCOc3ccc(C#N)cc3)CC2)CN(C)Cc2ccc(F)cc21` (mixture of isomers) [compound 314, rac-(1S,2R)-2-(4-(1-(3-(4-cyanophenoxy)propyl)piperidin-4-yl)-6-fluoro-2-methyl-1,2,3,4-tetrahydroisoquinolin-4-yl)cyclopentyl acetate], the results for the IC50 (on menin protein; in test [1] (setting [4]); in test [1] (setting [5])) were 0.031 µM, greater than 10 µM and 2.97 µM, respectively.
Regarding `CCN1Cc2ccccc2C(C2CCCC2)(C2CCN(CC3CN(c4ccc(S(=O)(=O)c5ccnc6cnccc56)cc4)C3)CC2)C1` (centres unmarked) [compound 158, 4-((4-(3-((4-(4-cyclopentyl-2-ethyl-1,2,3,4-tetrahydroisoquinolin-4-yl)piperidin-1-yl)methyl)azetidin-1-yl)phenyl)sulfonyl)-1,7-naphthyridine], the IC50 at menin protein was found to be 0.008 µM; in test [1] (setting [2]), 1.56 µM; in test [1] (setting [3]) it was 0.8 µM.
`COC(=O)N[C@H]1CCC[C@@H]1C(C#N)(c1ccccc1)C1CCN(CC2CN(c3ccc(S(=O)(=O)c4ccccc4)cc3)C2)CC1` (mixture of isomers) [compound 347, methyl (rac-(1S,2R)-2-(cyano(phenyl)(1-((1-(4-(phenylsulfonyl)phenyl)azetidin-3-yl)methyl)piperidin-4-yl)methyl)cyclopentyl) carbamate]: the half-maximal inhibitory concentration (IC50) on menin protein stood at 0.014 µM; in test [1] (setting [4]) it was 0.44 µM; in test [1] (setting [5]) it was 0.36 µM.
Taken in the same sequence, the figures for `CCN1Cc2ccccc2C(C2CCN(CC3CN(c4ccc(S(=O)(=O)c5cnn(C)c5)cc4)C3)CC2)([C@H]2CCC[C@@H]2NC(=O)NC)C1` (mixture of isomers) [Cpd. No. 291, rac-1-((1S,2R)-2-(2-ethyl-4-(1-((1-(4-((1-methyl-1H-pyrazol-4-yl)sulfonyl)phenyl)azetidin-3-yl)methyl)piperidin-4-yl)-1,2,3,4-tetrahydroisoquinolin-4-yl)cyclopentyl)-3-methylurea] were 0.007 µM, 0.71 µM and 0.2 µM.
Consider `CCN1Cc2ccccc2C(C2CCCC2)(C2CCN(CC3CN(c4ccc(S(=O)(=O)c5ccnc(C(F)(F)F)c5)cc4)C3)CC2)C1` (centres unmarked) [compound 157, 4-cyclopentyl-2-ethyl-4-(1-((1-(4-((2-(trifluoromethyl)pyridin-4-yl)sulfonyl)phenyl)azetidin-3-yl)methyl)piperidin-4-yl)-1,2,3,4-tetrahydroisoquinoline], for which the IC50 stood at 0.016 µM on menin protein, 4.4 µM in test [1] (setting [2]) and 1.8 µM in test [1] (setting [3]).
Take `CCN1Cc2ccccc2C(C2CCCC2)(C2CCN(CC3CN(c4ccc(S(=O)(=O)c5ccncc5)cc4)C3)CC2)C1` (centres unmarked) [Cpd. No. 148, 4-cyclopentyl-2-ethyl-4-(1-((1-(4-(pyridin-4-ylsulfonyl)phenyl)azetidin-3-yl)methyl)piperidin-4-yl)-1,2,3,4-tetrahydroisoquinoline]: the values for the IC50 (on menin protein; in test [1] (setting [2]); in test [1] (setting [3])) were 0.006 µM, 1.5 ± 0.9 µM and 0.81 ± 0.364 µM, respectively.
Taken in the same sequence, the figures for `CN1Cc2ccccc2C(C2CCCC2)(C2CCN(CC3CN(c4ccc(S(=O)(=O)C5CC5)cc4)C3)CC2)C1` (centres unmarked) [compound 70, 4-cyclopentyl-4-(1-((1-(4-(cyclopropylsulfonyl)phenyl)azetidin-3-yl)methyl)piperidin-4-yl)-2-methyl-1,2,3,4-tetrahydroisoquinoline] were 0.012 µM, 3.5 µM and 2.2 µM.
With `CNC(=O)N[C@H]1CCC[C@@H]1C(C#N)(c1ccccc1)C1CCN(CC2CN(c3ccc(S(=O)(=O)c4ccncc4)cc3)C2)CC1` (mixture of isomers) [compound 269, rac-1-((1S,2R)-2-(cyano(phenyl)(1-((1-(4-(pyridin-4-ylsulfonyl)phenyl)azetidin-3-yl)methyl)piperidin-4-yl)methyl)cyclopentyl)-3-methylurea], the results for the IC50 (on menin protein; in test [1] (setting [4]); in test [1] (setting [5])) were 0.009 µM, 1.73 µM and 0.273 µM, respectively.

Values taken from patent publication US10899738B2 (THE REGENTS OF THE UNIVERSITY OF MICHIGAN, priority 2016, dated 2021).
